The subject of data set [1] is porcine epidemic diarrhea virus (PEDV). The following applies: for SI (=CC50/EC50): CC50 in eGFP-Vero cells / EC50 against mCherry-PEDV.
Data set [2] shares this test system. Briefly: microbe, parasite or virus in culture. Conditions: 15 h, read-out: EC50 ± SD.

The structures appear in SMILES notation. Where two headings read alike, the source gives them in different places.

The values that follow come from paper PMC8813674 (Computational and Structural Biotechnology Journal, 2022).

For orientation: EC50 means the midpoint of the concentration-response curve. For the compound `CCC(CC)COC(=O)[C@H](C)N[P@](=O)(OC[C@H]1O[C@@](C#N)(c2ccc3c(N)ncnn23)[C@H](O)[C@@H]1O)Oc1ccccc1` [Remdesivir], the “Antiviral effect (mCherry expression and syncytia formation)” value in data set [1] (50 µM, 15 h post-infection) is on record as “completely inhibited”. The “SI (=CC50/EC50)” value in data set [1] and in data set [1] (listed as remdesivir) was greater than 37 each time. Besides, the EC50 in data set [2] came to 2710 ± 700 nM.
